Source: US11813305B2, “Endoplasmic reticulum stress as a predictive tool in cancer therapy and a combination therapy for the treatment of cancer” (IMMUNE SYSTEM KEY LTD., priority 2016, dated 2023)
Square brackets hold non-standard residues; d marks the D form. Peptide text beside a SMILES is read from it.

Test: Safety and tolerability (adverse events, DLT, MTD), phase I study
Type: in vivo, human
Text: The present clinical study is a formal open label phase I dose escalation study. The primary objective was to determine the maximum tolerated dose (MTD) and safety profile of dTCApFs. Assessments included drug exposure, adverse events (AEs; graded according to the Common Terminology Criteria for Adverse Events (CTCAE), and characterization of dose-limiting toxicities (DLTs). Other objectives included assessment of serum levels of angiogenic factors after dTCApFs administration, pharmacokinetics (PK) and pharmacodynamics (PD) analyses, as well as assessment of receptor staining and tumor response. […]
Subjects with evaluable or measurable disease are assessed according to the response evaluation criteria in solid tumors (RECIST) version 1.1 every 2 cycles, where a cycle is defined as 4 weeks of treatment with three administrations per week. Tumor lesion measurements and changes from baseline are summarized by cycle and dose cohort.

CC(C)C[C@@H](NC(=O)[C@H](NC(=O)[C@@H](CO)NC(=O)[C@H]1CCCN1C(=O)[C@@H](CC(C)C)NC(=O)[C@@H](Cc1ccccc1)NC(=O)[C@@H](Cc1ccccc1)NC(=O)[C@H](NC(=O)[C@@H](Cc1c[nH]c2ccccc12)NC(=O)[C@H](N)Cc1c[nH]c2ccccc12)[C@H](C)O)[C@H](C)O)C(=O)N[C@H](Cc1c[nH]c2ccccc12)C(=O)N[C@H](CCC(=O)O)C(=O)N[C@H](CCCNC(=N)N)C(=O)N[C@H](CCCCN)C(=O)O [dTCApFs, Trp Trp Thr Phe Phe Leu Pro Ser Thr Leu Trp Glu Arg Lys] (H-[dW][dW][dT][dF][dF][dL][dP][dS][dT][dL][dW][dE][dR][dK]-OH; N-terminus and C-terminus assumed)
Adverse event Grade 1: Abdominal pain (6 mg/m^2, n = 3): 0 | Adverse event Grade 1: Anemia (6 mg/m^2, n = 3): 3 | Adverse event Grade 1: Bowel obstruction (6 mg/m^2, n = 3): 1 | Adverse event Grade 1: Dehydration (6 mg/m^2, n = 3): 0 | Adverse event Grade 1: Diarrhea (6 mg/m^2, n = 3): 0 | Adverse event Grade 1: Fatigue (6 mg/m^2, n = 3): 0 | Adverse event Grade 1: GI hemorrhage (6 mg/m^2, n = 3): 1 | Adverse event Grade 1: Hypertension (6 mg/m^2, n = 3): 3 | Adverse event Grade 1: Increased INR (6 mg/m^2, n = 3): 0 | Adverse event Grade 1: Neuropathy (6 mg/m^2, n = 3): 0 | Adverse event Grade 1: Vomiting (6 mg/m^2, n = 3): 2 | Adverse event Grade 2: ALT increase (6 mg/m^2, n = 3): 0 | Adverse event Grade 2: AST increase (6 mg/m^2, n = 3): 0 | Adverse event Grade 2: Bilirubin increase (6 mg/m^2, n = 3): 0 | Adverse event Grade 2: Cough (6 mg/m^2, n = 3): 0 | Adverse event Grade 2: Liver dysfunction (6 mg/m^2, n = 3): 0 | Adverse event Grade 2: Pain, leg (6 mg/m^2, n = 3): 0 | Adverse event Grade 2: Pain, upper back (6 mg/m^2, n = 3): 0 | Adverse event Grade 2: Pruritus (6 mg/m^2, n = 3): 0 | Adverse event Grade 2: Urinary tract infection (6 mg/m^2, n = 3): 0 | Adverse event Grade 2: Urticaria (6 mg/m^2, n = 3): 0 | Adverse event Grade 3: Bilirubin increase (6 mg/m^2, n = 3): 0 | Adverse event Grade 3: Bowel obstruction (6 mg/m^2, n = 3): 1 | Adverse event Grade 3: Diarrhea (6 mg/m^2, n = 3): 0 | Adverse event Grade 3: GI hemorrhage (6 mg/m^2, n = 3): 1 | Adverse event Grade 3: Hypertension (6 mg/m^2, n = 3): 2 | Adverse event Grade 3: Increased INR (6 mg/m^2, n = 3): 0 | Adverse event Grade 4: Vomiting (6 mg/m^2, n = 3): 0 | Adverse event Grade 1: Abdominal pain (12 mg/m^2, n = 3): 1 | Adverse event Grade 1: Anemia (12 mg/m^2, n = 3): 0 | Adverse event Grade 1: Bowel obstruction (12 mg/m^2, n = 3): 0 | Adverse event Grade 1: Dehydration (12 mg/m^2, n = 3): 0 | Adverse event Grade 1: Diarrhea (12 mg/m^2, n = 3): 2 | Adverse event Grade 1: Fatigue (12 mg/m^2, n = 3): 1 | Adverse event Grade 1: GI hemorrhage (12 mg/m^2, n = 3): 0 | Adverse event Grade 1: Hypertension (12 mg/m^2, n = 3): 1 | Adverse event Grade 1: Increased INR (12 mg/m^2, n = 3): 0 | Adverse event Grade 1: Neuropathy (12 mg/m^2, n = 3): 1 | Adverse event Grade 1: Vomiting (12 mg/m^2, n = 3): 0 | Adverse event Grade 2: ALT increase (12 mg/m^2, n = 3): 0 | Adverse event Grade 2: AST increase (12 mg/m^2, n = 3): 0 | Adverse event Grade 2: Bilirubin increase (12 mg/m^2, n = 3): 0 | Adverse event Grade 2: Cough (12 mg/m^2, n = 3): 1 | Adverse event Grade 2: Liver dysfunction (12 mg/m^2, n = 3): 0 | Adverse event Grade 2: Pain, leg (12 mg/m^2, n = 3): 2 | Adverse event Grade 2: Pain, upper back (12 mg/m^2, n = 3): 0 | Adverse event Grade 2: Pruritus (12 mg/m^2, n = 3): 0 | Adverse event Grade 2: Urinary tract infection (12 mg/m^2, n = 3): 1 | Adverse event Grade 2: Urticaria (12 mg/m^2, n = 3): 0 | Adverse event Grade 3: Bilirubin increase (12 mg/m^2, n = 3): 0 | Adverse event Grade 3: Bowel obstruction (12 mg/m^2, n = 3): 0 | Adverse event Grade 3: Diarrhea (12 mg/m^2, n = 3): 1 | Adverse event Grade 3: GI hemorrhage (12 mg/m^2, n = 3): 0 | Adverse event Grade 3: Hypertension (12 mg/m^2, n = 3): 1 | Adverse event Grade 3: Increased INR (12 mg/m^2, n = 3): 0 | Adverse event Grade 4: Vomiting (12 mg/m^2, n = 3): 0 | Adverse event Grade 1: Abdominal pain (24 mg/m^2, n = 3): 2 | Adverse event Grade 1: Anemia (24 mg/m^2, n = 3): 0 | Adverse event Grade 1: Bowel obstruction (24 mg/m^2, n = 3): 0 | Adverse event Grade 1: Dehydration (24 mg/m^2, n = 3): 0 | Adverse event Grade 1: Diarrhea (24 mg/m^2, n = 3): 0 | Adverse event Grade 1: Fatigue (24 mg/m^2, n = 3): 0 | Adverse event Grade 1: GI hemorrhage (24 mg/m^2, n = 3): 0 | Adverse event Grade 1: Hypertension (24 mg/m^2, n = 3): 1 | Adverse event Grade 1: Increased INR (24 mg/m^2, n = 3): 0 | Adverse event Grade 1: Neuropathy (24 mg/m^2, n = 3): 1 | Adverse event Grade 1: Vomiting (24 mg/m^2, n = 3): 0 | Adverse event Grade 2: ALT increase (24 mg/m^2, n = 3): 0 | Adverse event Grade 2: AST increase (24 mg/m^2, n = 3): 0 | Adverse event Grade 2: Bilirubin increase (24 mg/m^2, n = 3): 0 | Adverse event Grade 2: Cough (24 mg/m^2, n = 3): 0 | Adverse event Grade 2: Liver dysfunction (24 mg/m^2, n = 3): 0 | Adverse event Grade 2: Pain, leg (24 mg/m^2, n = 3): 0 | Adverse event Grade 2: Pain, upper back (24 mg/m^2, n = 3): 0 | Adverse event Grade 2: Pruritus (24 mg/m^2, n = 3): 0 | Adverse event Grade 2: Urinary tract infection (24 mg/m^2, n = 3): 0 | Adverse event Grade 2: Urticaria (24 mg/m^2, n = 3): 0 | Adverse event Grade 3: Bilirubin increase (24 mg/m^2, n = 3): 0 | Adverse event Grade 3: Bowel obstruction (24 mg/m^2, n = 3): 0 | Adverse event Grade 3: Diarrhea (24 mg/m^2, n = 3): 0 | Adverse event Grade 3: GI hemorrhage (24 mg/m^2, n = 3): 0 | Adverse event Grade 3: Hypertension (24 mg/m^2, n = 3): 1 | Adverse event Grade 3: Increased INR (24 mg/m^2, n = 3): 0 | Adverse event Grade 4: Vomiting (24 mg/m^2, n = 3): 0 | Adverse event Grade 1: Abdominal pain (48 mg/m^2, n = 3): 0 | Adverse event Grade 1: Anemia (48 mg/m^2, n = 3): 0 | Adverse event Grade 1: Bowel obstruction (48 mg/m^2, n = 3): 0 | Adverse event Grade 1: Dehydration (48 mg/m^2, n = 3): 0 | Adverse event Grade 1: Diarrhea (48 mg/m^2, n = 3): 0 | Adverse event Grade 1: Fatigue (48 mg/m^2, n = 3): 1 | Adverse event Grade 1: GI hemorrhage (48 mg/m^2, n = 3): 0 | Adverse event Grade 1: Hypertension (48 mg/m^2, n = 3): 0 | Adverse event Grade 1: Increased INR (48 mg/m^2, n = 3): 1 | Adverse event Grade 1: Neuropathy (48 mg/m^2, n = 3): 0 | Adverse event Grade 1: Vomiting (48 mg/m^2, n = 3): 0 | Adverse event Grade 2: ALT increase (48 mg/m^2, n = 3): 0 | Adverse event Grade 2: AST increase (48 mg/m^2, n = 3): 0 | Adverse event Grade 2: Bilirubin increase (48 mg/m^2, n = 3): 1 | Adverse event Grade 2: Cough (48 mg/m^2, n = 3): 0 | Adverse event Grade 2: Liver dysfunction (48 mg/m^2, n = 3): 0 | Adverse event Grade 2: Pain, leg (48 mg/m^2, n = 3): 0 | Adverse event Grade 2: Pain, upper back (48 mg/m^2, n = 3): 0 | Adverse event Grade 2: Pruritus (48 mg/m^2, n = 3): 0 | Adverse event Grade 2: Urinary tract infection (48 mg/m^2, n = 3): 0 | Adverse event Grade 2: Urticaria (48 mg/m^2, n = 3): 0 | Adverse event Grade 3: Bilirubin increase (48 mg/m^2, n = 3): 1 | Adverse event Grade 3: Bowel obstruction (48 mg/m^2, n = 3): 0 | Adverse event Grade 3: Diarrhea (48 mg/m^2, n = 3): 0 | Adverse event Grade 3: GI hemorrhage (48 mg/m^2, n = 3): 0 | Adverse event Grade 3: Hypertension (48 mg/m^2, n = 3): 0 | Adverse event Grade 3: Increased INR (48 mg/m^2, n = 3): 1 | Adverse event Grade 4: Vomiting (48 mg/m^2, n = 3): 0 | Adverse event Grade 1: Abdominal pain (96 mg/m^2, n = 5): 0 | Adverse event Grade 1: Anemia (96 mg/m^2, n = 5): 0 | Adverse event Grade 1: Bowel obstruction (96 mg/m^2, n = 5): 0 | Adverse event Grade 1: Dehydration (96 mg/m^2, n = 5): 1 | Adverse event Grade 1: Diarrhea (96 mg/m^2, n = 5): 2 | Adverse event Grade 1: Fatigue (96 mg/m^2, n = 5): 0 | Adverse event Grade 1: GI hemorrhage (96 mg/m^2, n = 5): 0 | Adverse event Grade 1: Hypertension (96 mg/m^2, n = 5): 1 | Adverse event Grade 1: Increased INR (96 mg/m^2, n = 5): 0 | Adverse event Grade 1: Neuropathy (96 mg/m^2, n = 5): 0 | Adverse event Grade 1: Vomiting (96 mg/m^2, n = 5): 1 | Adverse event Grade 2: ALT increase (96 mg/m^2, n = 5): 1 | Adverse event Grade 2: AST increase (96 mg/m^2, n = 5): 1 | Adverse event Grade 2: Bilirubin increase (96 mg/m^2, n = 5): 1 | Adverse event Grade 2: Cough (96 mg/m^2, n = 5): 0 | Adverse event Grade 2: Liver dysfunction (96 mg/m^2, n = 5): 1 | Adverse event Grade 2: Pain, leg (96 mg/m^2, n = 5): 0 | Adverse event Grade 2: Pain, upper back (96 mg/m^2, n = 5): 1 | Adverse event Grade 2: Pruritus (96 mg/m^2, n = 5): 1 | Adverse event Grade 2: Urinary tract infection (96 mg/m^2, n = 5): 0 | Adverse event Grade 2: Urticaria (96 mg/m^2, n = 5): 2 | Adverse event Grade 3: Bilirubin increase (96 mg/m^2, n = 5): 1 | Adverse event Grade 3: Bowel obstruction (96 mg/m^2, n = 5): 0 | Adverse event Grade 3: Diarrhea (96 mg/m^2, n = 5): 1 | Adverse event Grade 3: GI hemorrhage (96 mg/m^2, n = 5): 0 | Adverse event Grade 3: Hypertension (96 mg/m^2, n = 5): 2 | Adverse event Grade 3: Increased INR (96 mg/m^2, n = 5): 0 | Adverse event Grade 4: Vomiting (96 mg/m^2, n = 5): 1 | relation of adverse events (AEs) to study drug (AEs of Table 4): None were related to study drug | grade 4 AE vomiting, number of patients (all dose groups): 1 | dose-limiting toxicities (DLTs) (any patient up to cohort 5 (6-96 mg/m^2)): No dose-limiting toxicities (DLTs) were observed | MTD (doses of 6, 12, 24, 48, and 96 mg/m^2 i.v., 3 times/week): not reached | tolerability of treatment (overall, 17 patients): well-tolerated with no cumulative toxicity
